These molecules were tested against JAK1(JH1domain-catalytic) (Homo sapiens, UniProt P23458) (assay: KINOMEscan competition binding). Settings: read-out: %Inh JAK1(JH1domain-catalytic).
Chain of JAK1(JH1domain-catalytic) (P23458 854-1154 limits assumed): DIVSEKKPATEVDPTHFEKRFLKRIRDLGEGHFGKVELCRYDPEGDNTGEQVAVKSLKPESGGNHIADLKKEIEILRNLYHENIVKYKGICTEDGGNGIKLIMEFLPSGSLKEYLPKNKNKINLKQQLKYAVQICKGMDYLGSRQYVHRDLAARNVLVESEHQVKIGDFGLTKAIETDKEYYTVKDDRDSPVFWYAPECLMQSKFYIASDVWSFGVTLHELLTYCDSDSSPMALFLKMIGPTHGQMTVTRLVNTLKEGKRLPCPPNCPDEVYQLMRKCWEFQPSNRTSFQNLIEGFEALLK

Row | Compound | inhibition at 1 µM
1 | O=c1cc(N2CCOCC2)nc2n(Cc3cccc(Cl)c3Cl)c(C3CC3)nn12 [UNC10225469A] | 9%
2 | Cn1cc(-c2cnc(N)c3c(-c4ccc5c(c4)CCN5C(=O)Cc4ccccc4)csc23)cn1 [UNC10225012A] | 0%
3 | CS(=O)(=O)Cc1ccc(Nc2nccc(-c3c(-c4cccc(NC(=O)C5CCCCC5)c4)nn4ncccc34)n2)cc1 [UNC10225159A] | 0%
4 | COc1cccc(OC)c1C(=O)Nc1cccc(-c2nn3ccccc3c2-c2ccnc(Nc3cccc(F)c3)n2)c1 [UNC10225310A] | 0%
5 | Cc1ccc(NC(=O)Nc2cccc(C(F)(F)F)c2)cc1 [UNC10225187A] | 0%

Each molecule was assayed against LOK (Homo sapiens, UniProt O94804) (assay: KINOMEscan competition binding). Settings: read-out: %Inh LOK.
Chain of LOK (O94804 whole entry): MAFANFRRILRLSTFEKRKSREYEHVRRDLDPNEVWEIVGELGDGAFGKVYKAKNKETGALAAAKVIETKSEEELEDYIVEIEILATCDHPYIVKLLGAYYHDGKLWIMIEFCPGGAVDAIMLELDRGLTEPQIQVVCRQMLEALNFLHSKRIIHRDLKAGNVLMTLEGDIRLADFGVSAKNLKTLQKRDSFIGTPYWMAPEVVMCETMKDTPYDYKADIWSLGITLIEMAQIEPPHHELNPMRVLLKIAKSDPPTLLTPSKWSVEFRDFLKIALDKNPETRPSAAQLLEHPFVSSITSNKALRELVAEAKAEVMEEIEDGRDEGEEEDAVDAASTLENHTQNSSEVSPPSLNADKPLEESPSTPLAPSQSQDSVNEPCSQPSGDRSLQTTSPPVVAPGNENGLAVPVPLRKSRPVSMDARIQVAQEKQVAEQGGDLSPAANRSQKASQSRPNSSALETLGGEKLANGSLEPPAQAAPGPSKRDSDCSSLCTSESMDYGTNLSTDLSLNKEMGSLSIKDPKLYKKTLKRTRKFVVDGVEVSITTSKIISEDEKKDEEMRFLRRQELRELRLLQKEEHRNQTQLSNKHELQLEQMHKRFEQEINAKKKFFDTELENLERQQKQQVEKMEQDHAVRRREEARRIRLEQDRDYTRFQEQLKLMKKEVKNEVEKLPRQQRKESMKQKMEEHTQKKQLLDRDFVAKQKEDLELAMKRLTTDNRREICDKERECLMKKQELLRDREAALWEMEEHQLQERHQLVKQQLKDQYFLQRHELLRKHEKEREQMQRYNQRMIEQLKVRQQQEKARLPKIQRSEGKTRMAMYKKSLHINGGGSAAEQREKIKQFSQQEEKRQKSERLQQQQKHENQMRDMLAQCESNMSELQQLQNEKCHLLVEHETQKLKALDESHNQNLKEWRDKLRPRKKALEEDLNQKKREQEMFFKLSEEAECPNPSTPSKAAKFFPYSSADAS

Row | Compound | inhibition at 1 µM
6 | O=c1cc(N2CCOCC2)nc2n(Cc3cccc(Cl)c3Cl)c(C3CC3)nn12 [UNC10225469A] | 0%
7 | Cn1cc(-c2cnc(N)c3c(-c4ccc5c(c4)CCN5C(=O)Cc4ccccc4)csc23)cn1 [UNC10225012A] | 98.9%
8 | CS(=O)(=O)Cc1ccc(Nc2nccc(-c3c(-c4cccc(NC(=O)C5CCCCC5)c4)nn4ncccc34)n2)cc1 [UNC10225159A] | 81%
9 | COc1cccc(OC)c1C(=O)Nc1cccc(-c2nn3ccccc3c2-c2ccnc(Nc3cccc(F)c3)n2)c1 [UNC10225310A] | 90%
10 | Cc1ccc(NC(=O)Nc2cccc(C(F)(F)F)c2)cc1 [UNC10225187A] | 0%

The molecules below were run against T1, AURKA (Homo sapiens, UniProt O14965) (assay: KINOMEscan competition binding). Settings: read-out: %Inh AURKA.
T1 sequence (O14965 1-403): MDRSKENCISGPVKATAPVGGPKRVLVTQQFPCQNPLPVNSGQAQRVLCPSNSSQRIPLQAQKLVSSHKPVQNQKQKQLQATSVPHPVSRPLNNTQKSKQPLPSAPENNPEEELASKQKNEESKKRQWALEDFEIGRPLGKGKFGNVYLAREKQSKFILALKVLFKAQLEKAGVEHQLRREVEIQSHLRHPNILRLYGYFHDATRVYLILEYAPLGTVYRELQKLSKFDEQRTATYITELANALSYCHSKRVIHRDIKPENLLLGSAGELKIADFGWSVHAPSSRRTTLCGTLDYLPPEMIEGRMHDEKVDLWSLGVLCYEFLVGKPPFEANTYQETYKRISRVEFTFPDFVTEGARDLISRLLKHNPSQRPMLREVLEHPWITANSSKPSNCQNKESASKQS

Row | Compound | inhibition at 1 µM
11 | O=c1cc(N2CCOCC2)nc2n(Cc3cccc(Cl)c3Cl)c(C3CC3)nn12 [UNC10225469A] | 0%
12 | Cn1cc(-c2cnc(N)c3c(-c4ccc5c(c4)CCN5C(=O)Cc4ccccc4)csc23)cn1 [UNC10225012A] | 24%
13 | CS(=O)(=O)Cc1ccc(Nc2nccc(-c3c(-c4cccc(NC(=O)C5CCCCC5)c4)nn4ncccc34)n2)cc1 [UNC10225159A] | 9%
14 | COc1cccc(OC)c1C(=O)Nc1cccc(-c2nn3ccccc3c2-c2ccnc(Nc3cccc(F)c3)n2)c1 [UNC10225310A] | 32%
15 | Cc1ccc(NC(=O)Nc2cccc(C(F)(F)F)c2)cc1 [UNC10225187A] | 0%

These molecules were tested against AURKB (Homo sapiens, UniProt Q96GD4) (assay: KINOMEscan competition binding). Settings: read-out: %Inh AURKB.
Chain of AURKB (Q96GD4 whole entry): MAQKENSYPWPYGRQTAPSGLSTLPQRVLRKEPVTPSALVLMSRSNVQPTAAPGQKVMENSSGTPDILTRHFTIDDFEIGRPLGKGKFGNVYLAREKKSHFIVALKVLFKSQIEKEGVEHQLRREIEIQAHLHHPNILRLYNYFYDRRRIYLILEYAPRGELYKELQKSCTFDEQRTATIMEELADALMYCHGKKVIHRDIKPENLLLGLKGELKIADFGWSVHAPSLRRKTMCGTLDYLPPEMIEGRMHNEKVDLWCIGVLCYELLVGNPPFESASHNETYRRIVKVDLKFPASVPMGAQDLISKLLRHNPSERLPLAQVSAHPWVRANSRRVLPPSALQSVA

Row | Compound | inhibition at 1 µM
16 | O=c1cc(N2CCOCC2)nc2n(Cc3cccc(Cl)c3Cl)c(C3CC3)nn12 [UNC10225469A] | 4%
17 | Cn1cc(-c2cnc(N)c3c(-c4ccc5c(c4)CCN5C(=O)Cc4ccccc4)csc23)cn1 [UNC10225012A] | 97.8%
18 | CS(=O)(=O)Cc1ccc(Nc2nccc(-c3c(-c4cccc(NC(=O)C5CCCCC5)c4)nn4ncccc34)n2)cc1 [UNC10225159A] | 15%
19 | COc1cccc(OC)c1C(=O)Nc1cccc(-c2nn3ccccc3c2-c2ccnc(Nc3cccc(F)c3)n2)c1 [UNC10225310A] | 0%
20 | Cc1ccc(NC(=O)Nc2cccc(C(F)(F)F)c2)cc1 [UNC10225187A] | 0%

Each molecule was assayed against T2, LZK (Homo sapiens, UniProt O43283) (assay: KINOMEscan competition binding). Settings: read-out: %Inh LZK.
T2 sequence (O43283 1-966): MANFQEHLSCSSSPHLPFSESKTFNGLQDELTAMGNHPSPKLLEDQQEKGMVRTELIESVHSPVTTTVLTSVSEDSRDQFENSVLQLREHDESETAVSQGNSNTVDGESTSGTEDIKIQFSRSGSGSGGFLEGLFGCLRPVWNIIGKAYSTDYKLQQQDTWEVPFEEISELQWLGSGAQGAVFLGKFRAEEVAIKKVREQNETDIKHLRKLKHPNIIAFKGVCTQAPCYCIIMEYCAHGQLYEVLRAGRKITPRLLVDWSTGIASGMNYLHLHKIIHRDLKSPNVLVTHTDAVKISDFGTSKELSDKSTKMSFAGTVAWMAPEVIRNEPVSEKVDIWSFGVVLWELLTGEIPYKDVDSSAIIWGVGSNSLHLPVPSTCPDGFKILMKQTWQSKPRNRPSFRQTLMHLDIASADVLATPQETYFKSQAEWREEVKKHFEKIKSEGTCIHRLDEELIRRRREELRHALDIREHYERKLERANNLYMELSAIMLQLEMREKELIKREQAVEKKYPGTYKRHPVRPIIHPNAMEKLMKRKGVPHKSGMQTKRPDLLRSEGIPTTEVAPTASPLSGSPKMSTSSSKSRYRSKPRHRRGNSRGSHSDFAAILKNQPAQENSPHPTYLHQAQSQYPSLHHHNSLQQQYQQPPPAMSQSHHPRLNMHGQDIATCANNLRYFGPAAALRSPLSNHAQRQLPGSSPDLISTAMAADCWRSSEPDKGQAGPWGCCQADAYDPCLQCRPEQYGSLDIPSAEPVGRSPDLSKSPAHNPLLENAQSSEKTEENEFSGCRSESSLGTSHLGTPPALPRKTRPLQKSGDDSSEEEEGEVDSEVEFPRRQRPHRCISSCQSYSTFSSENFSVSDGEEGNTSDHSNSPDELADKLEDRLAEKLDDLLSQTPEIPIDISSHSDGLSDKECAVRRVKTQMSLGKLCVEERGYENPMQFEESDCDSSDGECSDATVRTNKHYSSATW

Row | Compound | inhibition at 1 µM
21 | O=c1cc(N2CCOCC2)nc2n(Cc3cccc(Cl)c3Cl)c(C3CC3)nn12 [UNC10225469A] | 0%
22 | Cn1cc(-c2cnc(N)c3c(-c4ccc5c(c4)CCN5C(=O)Cc4ccccc4)csc23)cn1 [UNC10225012A] | 0%
23 | CS(=O)(=O)Cc1ccc(Nc2nccc(-c3c(-c4cccc(NC(=O)C5CCCCC5)c4)nn4ncccc34)n2)cc1 [UNC10225159A] | 0%
24 | COc1cccc(OC)c1C(=O)Nc1cccc(-c2nn3ccccc3c2-c2ccnc(Nc3cccc(F)c3)n2)c1 [UNC10225310A] | 8%
25 | Cc1ccc(NC(=O)Nc2cccc(C(F)(F)F)c2)cc1 [UNC10225187A] | 0%

These molecules were tested against MAP3K1 (Homo sapiens, UniProt Q13233) (assay: KINOMEscan competition binding). Settings: read-out: %Inh MAP3K1.
Chain of MAP3K1 (Q13233 whole entry): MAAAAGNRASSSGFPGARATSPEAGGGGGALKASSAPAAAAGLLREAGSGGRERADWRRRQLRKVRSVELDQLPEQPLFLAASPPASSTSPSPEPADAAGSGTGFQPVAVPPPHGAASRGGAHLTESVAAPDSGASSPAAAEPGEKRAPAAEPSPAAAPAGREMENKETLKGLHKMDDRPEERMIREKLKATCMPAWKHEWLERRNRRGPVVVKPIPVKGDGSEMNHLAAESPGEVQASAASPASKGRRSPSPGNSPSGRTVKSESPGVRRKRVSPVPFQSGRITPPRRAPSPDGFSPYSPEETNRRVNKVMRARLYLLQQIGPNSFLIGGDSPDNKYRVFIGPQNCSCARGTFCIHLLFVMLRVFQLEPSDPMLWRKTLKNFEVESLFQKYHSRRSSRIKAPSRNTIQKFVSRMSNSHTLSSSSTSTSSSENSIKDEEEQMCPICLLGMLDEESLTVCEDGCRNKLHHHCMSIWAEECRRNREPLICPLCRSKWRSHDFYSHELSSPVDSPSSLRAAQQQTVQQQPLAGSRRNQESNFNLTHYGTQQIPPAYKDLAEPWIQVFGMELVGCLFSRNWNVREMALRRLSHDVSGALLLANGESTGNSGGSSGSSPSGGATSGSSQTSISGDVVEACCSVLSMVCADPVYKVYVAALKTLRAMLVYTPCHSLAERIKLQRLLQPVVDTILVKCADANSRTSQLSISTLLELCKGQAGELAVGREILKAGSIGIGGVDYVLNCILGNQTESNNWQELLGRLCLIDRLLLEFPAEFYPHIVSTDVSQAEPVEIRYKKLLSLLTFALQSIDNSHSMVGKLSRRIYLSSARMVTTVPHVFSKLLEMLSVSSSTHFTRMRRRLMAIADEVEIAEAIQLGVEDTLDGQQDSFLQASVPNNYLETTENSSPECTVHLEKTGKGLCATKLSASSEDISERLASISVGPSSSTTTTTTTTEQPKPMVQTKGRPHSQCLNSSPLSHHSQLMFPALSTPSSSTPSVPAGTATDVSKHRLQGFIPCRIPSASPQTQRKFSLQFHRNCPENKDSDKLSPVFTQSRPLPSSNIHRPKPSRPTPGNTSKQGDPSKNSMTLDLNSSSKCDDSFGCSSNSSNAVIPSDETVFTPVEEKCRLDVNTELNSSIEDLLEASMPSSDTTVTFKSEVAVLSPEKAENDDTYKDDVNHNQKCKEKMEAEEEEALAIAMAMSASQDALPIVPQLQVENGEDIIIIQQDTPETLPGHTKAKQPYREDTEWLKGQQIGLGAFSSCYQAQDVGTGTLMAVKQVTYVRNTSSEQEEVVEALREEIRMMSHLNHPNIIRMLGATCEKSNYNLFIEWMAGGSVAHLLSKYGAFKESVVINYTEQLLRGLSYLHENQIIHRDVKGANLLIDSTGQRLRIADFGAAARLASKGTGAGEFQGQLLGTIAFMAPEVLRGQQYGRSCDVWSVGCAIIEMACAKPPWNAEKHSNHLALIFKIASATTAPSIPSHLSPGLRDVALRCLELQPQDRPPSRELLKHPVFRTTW

Row | Compound | inhibition at 1 µM
26 | O=c1cc(N2CCOCC2)nc2n(Cc3cccc(Cl)c3Cl)c(C3CC3)nn12 [UNC10225469A] | 14%
27 | Cn1cc(-c2cnc(N)c3c(-c4ccc5c(c4)CCN5C(=O)Cc4ccccc4)csc23)cn1 [UNC10225012A] | 4%
28 | CS(=O)(=O)Cc1ccc(Nc2nccc(-c3c(-c4cccc(NC(=O)C5CCCCC5)c4)nn4ncccc34)n2)cc1 [UNC10225159A] | 30%
29 | COc1cccc(OC)c1C(=O)Nc1cccc(-c2nn3ccccc3c2-c2ccnc(Nc3cccc(F)c3)n2)c1 [UNC10225310A] | 0%
30 | Cc1ccc(NC(=O)Nc2cccc(C(F)(F)F)c2)cc1 [UNC10225187A] | 0%

The molecules below were run against T3, EPHB2 (Homo sapiens, UniProt P29323) (assay: KINOMEscan competition binding). Settings: read-out: %Inh EPHB2.
T3 sequence (P29323 19-1055): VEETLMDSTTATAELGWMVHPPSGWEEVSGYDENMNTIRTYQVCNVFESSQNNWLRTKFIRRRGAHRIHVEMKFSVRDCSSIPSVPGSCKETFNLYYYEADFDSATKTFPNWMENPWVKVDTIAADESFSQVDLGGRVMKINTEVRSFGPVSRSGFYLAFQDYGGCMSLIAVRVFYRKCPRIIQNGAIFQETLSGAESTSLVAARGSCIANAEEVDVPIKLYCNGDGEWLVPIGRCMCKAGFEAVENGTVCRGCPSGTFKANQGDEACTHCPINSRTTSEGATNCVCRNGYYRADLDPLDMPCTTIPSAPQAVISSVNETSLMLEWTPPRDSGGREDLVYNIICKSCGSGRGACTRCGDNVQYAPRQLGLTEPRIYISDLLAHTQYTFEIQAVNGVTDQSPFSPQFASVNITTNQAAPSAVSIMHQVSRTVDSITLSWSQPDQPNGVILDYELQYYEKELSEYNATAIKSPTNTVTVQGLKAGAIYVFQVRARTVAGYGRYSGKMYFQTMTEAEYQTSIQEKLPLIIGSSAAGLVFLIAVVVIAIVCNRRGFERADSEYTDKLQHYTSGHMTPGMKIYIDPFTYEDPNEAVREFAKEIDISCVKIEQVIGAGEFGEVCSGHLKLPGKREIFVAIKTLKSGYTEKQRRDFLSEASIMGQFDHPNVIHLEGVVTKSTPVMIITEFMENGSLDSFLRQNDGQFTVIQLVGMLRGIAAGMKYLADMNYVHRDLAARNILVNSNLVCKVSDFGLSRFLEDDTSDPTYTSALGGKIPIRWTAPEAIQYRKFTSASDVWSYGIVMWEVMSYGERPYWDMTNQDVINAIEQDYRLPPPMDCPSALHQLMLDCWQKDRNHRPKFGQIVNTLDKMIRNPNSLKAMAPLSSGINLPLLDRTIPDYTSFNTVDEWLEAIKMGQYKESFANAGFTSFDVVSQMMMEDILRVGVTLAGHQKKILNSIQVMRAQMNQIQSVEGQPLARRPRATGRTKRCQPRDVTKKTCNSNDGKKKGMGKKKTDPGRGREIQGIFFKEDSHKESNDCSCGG

Row | Compound | inhibition at 1 µM
31 | O=c1cc(N2CCOCC2)nc2n(Cc3cccc(Cl)c3Cl)c(C3CC3)nn12 [UNC10225469A] | 0%
32 | Cn1cc(-c2cnc(N)c3c(-c4ccc5c(c4)CCN5C(=O)Cc4ccccc4)csc23)cn1 [UNC10225012A] | 2%
33 | CS(=O)(=O)Cc1ccc(Nc2nccc(-c3c(-c4cccc(NC(=O)C5CCCCC5)c4)nn4ncccc34)n2)cc1 [UNC10225159A] | 3%
34 | COc1cccc(OC)c1C(=O)Nc1cccc(-c2nn3ccccc3c2-c2ccnc(Nc3cccc(F)c3)n2)c1 [UNC10225310A] | 0%
35 | Cc1ccc(NC(=O)Nc2cccc(C(F)(F)F)c2)cc1 [UNC10225187A] | 3%

Each molecule was assayed against BIKE (Homo sapiens, UniProt Q9NSY1) (assay: KINOMEscan competition binding). Settings: read-out: %Inh BIKE.
Chain of BIKE (Q9NSY1 whole entry): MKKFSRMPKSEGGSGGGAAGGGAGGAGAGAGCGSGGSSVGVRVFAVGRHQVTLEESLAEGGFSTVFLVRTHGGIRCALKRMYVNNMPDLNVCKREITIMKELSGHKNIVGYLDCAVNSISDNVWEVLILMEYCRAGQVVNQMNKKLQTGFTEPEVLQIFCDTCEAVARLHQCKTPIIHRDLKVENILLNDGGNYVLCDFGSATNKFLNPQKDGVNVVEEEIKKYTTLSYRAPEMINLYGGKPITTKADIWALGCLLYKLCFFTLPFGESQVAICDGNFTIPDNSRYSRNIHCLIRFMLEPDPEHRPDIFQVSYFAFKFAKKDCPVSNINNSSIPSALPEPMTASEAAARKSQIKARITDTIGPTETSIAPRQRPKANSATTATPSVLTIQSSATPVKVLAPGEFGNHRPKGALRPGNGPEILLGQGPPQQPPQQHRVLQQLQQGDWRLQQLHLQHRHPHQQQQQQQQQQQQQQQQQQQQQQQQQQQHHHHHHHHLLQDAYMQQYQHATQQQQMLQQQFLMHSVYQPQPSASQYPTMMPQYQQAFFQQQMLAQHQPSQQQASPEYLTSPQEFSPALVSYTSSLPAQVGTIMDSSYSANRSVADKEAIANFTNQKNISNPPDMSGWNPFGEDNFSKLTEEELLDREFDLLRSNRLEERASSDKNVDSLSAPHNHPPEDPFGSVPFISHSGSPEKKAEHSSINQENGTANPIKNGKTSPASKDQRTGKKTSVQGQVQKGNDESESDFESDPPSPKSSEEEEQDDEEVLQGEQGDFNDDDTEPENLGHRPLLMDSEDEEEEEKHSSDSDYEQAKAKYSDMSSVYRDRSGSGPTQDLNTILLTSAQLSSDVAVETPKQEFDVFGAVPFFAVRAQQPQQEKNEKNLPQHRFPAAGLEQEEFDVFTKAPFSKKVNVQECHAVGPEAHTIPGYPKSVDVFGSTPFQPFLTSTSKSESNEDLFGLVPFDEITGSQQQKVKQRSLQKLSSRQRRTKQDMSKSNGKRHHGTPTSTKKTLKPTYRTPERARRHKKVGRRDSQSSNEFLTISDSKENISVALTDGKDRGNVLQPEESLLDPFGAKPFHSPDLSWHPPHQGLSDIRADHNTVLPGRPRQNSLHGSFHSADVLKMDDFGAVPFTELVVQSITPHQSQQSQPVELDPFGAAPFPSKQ

Row | Compound | inhibition at 1 µM
36 | O=c1cc(N2CCOCC2)nc2n(Cc3cccc(Cl)c3Cl)c(C3CC3)nn12 [UNC10225469A] | 0%
37 | Cn1cc(-c2cnc(N)c3c(-c4ccc5c(c4)CCN5C(=O)Cc4ccccc4)csc23)cn1 [UNC10225012A] | 0%
38 | CS(=O)(=O)Cc1ccc(Nc2nccc(-c3c(-c4cccc(NC(=O)C5CCCCC5)c4)nn4ncccc34)n2)cc1 [UNC10225159A] | 1%
39 | COc1cccc(OC)c1C(=O)Nc1cccc(-c2nn3ccccc3c2-c2ccnc(Nc3cccc(F)c3)n2)c1 [UNC10225310A] | 0%
40 | Cc1ccc(NC(=O)Nc2cccc(C(F)(F)F)c2)cc1 [UNC10225187A] | 4%
